The record followed here is patent US20110200626A1, “IQGAP3 EPITOPE PEPTIDES AND VACCINES CONTAINING THE SAME” (Oncotherapy Science, Inc., priority 2008, published 2011).

Entries after “also recorded” stand apart in the source; their conditions may differ. Ends that are not written are not given here.

Type in all cases: cell-based, human
The subject of assay [1] is peptide-pulsed A24LCL cells. The experiment in a line: IFN-gamma ELISPOT assay on CTLs induced with HLA-A*2402 restricted peptides. Particulars: against peptide-pulsed target cells compared with control without peptide.
Assay [2] relates to peptide-pulsed A24LCL cells. Put plainly: IFN-gamma ELISA assay on CTL lines (HLA-A*2402). To be noted: target cells pulsed with corresponding peptide vs without peptide. On the technique in general: In an ELISA, binding on a coated surface is turned into a signal by an enzyme label.
The test system of assay [3] is peptide-pulsed T2 cells. The experiment in a line: IFN-gamma ELISPOT assay on CTLs induced with HLA-A*0201 restricted peptides. Particulars: against peptide-pulsed target cells compared with control without peptide.
Assay [4] has as its system peptide-pulsed T2 cells. Put plainly: IFN-gamma ELISA assay on CTL lines (HLA-A*0201). Particulars: target cells pulsed with corresponding peptide vs without peptide.

In the case of YYSQYIRACL [SEQ ID NO: 37], the “IFN-gamma production of peptide-induced CTLs (ELISPOT)” value (“IFN-gamma production … (ELISPOT)” below) in assay [1] (listed as IQGAP3-A24-10-1507) is “potent IFN-gamma production ability”. Moreover, the “IFN-gamma production of established CTL lines (ELISA)” value (“IFN-gamma production … (ELISA)” for short) in assay [2] is listed as “potent IFN-gamma production”.

For RVVYCIHAL [SEQ ID NO: 29], the “IFN-gamma production … (ELISPOT)” value in assay [1] (listed as IQGAP3-A24-9-137) was “potent IFN-gamma production ability”. Also, in assay [2], the “IFN-gamma production … (ELISA)” value is recorded as “potent IFN-gamma production”.

For the substance KIGGILANEL [SEQ ID NO: 56], the “IFN-gamma production … (ELISPOT)” value in assay [1] (listed as IQGAP3-A24-10-191) was “potent IFN-gamma production ability”. In addition, in assay [2], the “IFN-gamma production … (ELISA)” value was “potent IFN-gamma production”.

Turning to VYKVVGNLL [SEQ ID NO: 4], the “IFN-gamma production … (ELISPOT)” value in assay [1] (listed as IQGAP3-A24-9-1167) is given as “potent IFN-gamma production ability”. In addition, the “IFN-gamma production … (ELISA)” value in assay [2] was “potent IFN-gamma production”.

Consider VYCIHALSLF [SEQ ID NO: 40], for which, in assay [1] (listed as IQGAP3-A24-10-139), the “IFN-gamma production … (ELISPOT)” value is listed as “potent IFN-gamma production ability”. For the same substance, the “IFN-gamma production … (ELISA)” value in assay [2] was “potent IFN-gamma production”.

For the substance “KLGHcFAPSV (KLGHCFAPSV; not fully specified (residue 5); printed as KLGHcFAPSV) [SEQ ID NO: 114]”, the “IFN-gamma production … (ELISPOT)” value in the assay with peptide-pulsed T2 cells [3] (listed as IQGAP3-A02-10-70) is reported as “potent IFN-gamma production ability”. For the same substance, in the assay with peptide-pulsed T2 cells [4], the “IFN-gamma production … (ELISA)” value is recorded as “potent IFN-gamma production”.

Consider QYEGVAVMKL [SEQ ID NO: 35], for which the “IFN-gamma production … (ELISPOT)” value in assay [1] (listed as IQGAP3-A24-10-1600) is “potent IFN-gamma production ability”. The “IFN-gamma production … (ELISA)” value in assay [2] is “potent IFN-gamma production”.

As for AYQHLFYLL [SEQ ID NO: 2], the “IFN-gamma production … (ELISPOT)” value in assay [1] (listed as IQGAP3-A24-9-955) was “potent IFN-gamma production ability”. In assay [2], the “IFN-gamma production … (ELISA)” value is reported as “potent IFN-gamma production”.

With “LEAYqHLFYL (LEAYQHLFYL; not fully specified (residue 5); printed as LEAYqHLFYL) [SEQ ID NO: 139]”, the “IFN-gamma production … (ELISPOT)” value in the assay with peptide-pulsed T2 cells [3] (listed as IQGAP3-A02-10-953) is reported as “potent IFN-gamma production ability”. In addition, in the assay on peptide-pulsed T2 cells [4], the “IFN-gamma production … (ELISA)” value is recorded as “potent IFN-gamma production”.

As to RSLLLSTKQL [SEQ ID NO: 62], the “IFN-gamma production … (ELISPOT)” value in assay [1] (listed as IQGAP3-A24-10-1363) is recorded as “potent IFN-gamma production ability”. Moreover, in assay [2], the “IFN-gamma production … (ELISA)” value is given as “potent IFN-gamma production”.

On to RNGVLLAKL [SEQ ID NO: 32], for which, in assay [1] (listed as IQGAP3-A24-9-63), the “IFN-gamma production … (ELISPOT)” value is “potent IFN-gamma production ability”. For the same substance, the “IFN-gamma production … (ELISA)” value in assay [2] is reported as “potent IFN-gamma production”.

As to PYDVTPEQAL [SEQ ID NO: 49], the “IFN-gamma production … (ELISPOT)” value in assay [1] (listed as IQGAP3-A24-10-1097) is “potent IFN-gamma production ability”. For the same substance, the “IFN-gamma production … (ELISA)” value in assay [2] is “potent IFN-gamma production”.

Regarding KALQDPALAL [SEQ ID NO: 57], the “IFN-gamma production … (ELISPOT)” value in assay [1] (listed as IQGAP3-A24-10-314) is “potent IFN-gamma production ability”. Further, in assay [2], the “IFN-gamma production … (ELISA)” value is on record as “potent IFN-gamma production”.

Turning to “YLLQtQPIYL (YLLQTQPIYL; not fully specified (residue 5); printed as YLLQtQPIYL) [SEQ ID NO: 111]”, the “IFN-gamma production … (ELISPOT)” value with peptide-pulsed T2 cells [3] (listed as IQGAP3-A02-10-961) was “potent IFN-gamma production ability”. In the assay with peptide-pulsed T2 cells [4], the “IFN-gamma production … (ELISA)” value is given as “potent IFN-gamma production”.

For RQNVAYQYL [SEQ ID NO: 25], the “IFN-gamma production … (ELISPOT)” value in assay [1] (listed as IQGAP3-A24-9-26) was “potent IFN-gamma production ability”. Moreover, the “IFN-gamma production … (ELISA)” value in assay [2] is given as “potent IFN-gamma production”.

For the substance IMDkIGLLV [SEQ ID NO: 150], the “IFN-gamma production … (ELISPOT)” value in the assay with peptide-pulsed T2 cells [3] (listed as IQGAP3-A02-10-897) was “potent IFN-gamma production ability”. Besides, the “IFN-gamma production … (ELISA)” value in the assay on peptide-pulsed T2 cells [4] is “potent IFN-gamma production”.

On to RLDIALRNLL [SEQ ID NO: 63], for which the “IFN-gamma production … (ELISPOT)” value in assay [1] (listed as IQGAP3-A24-10-1114) is “potent IFN-gamma production ability”. Also, the “IFN-gamma production … (ELISA)” value in assay [2] is recorded as “potent IFN-gamma production”.

KVNVNLLIFL [SEQ ID NO: 55]: the “IFN-gamma production … (ELISPOT)” value in assay [1] (listed as IQGAP3-A24-10-1614) is reported as “potent IFN-gamma production ability”. Moreover, in assay [2], the “IFN-gamma production … (ELISA)” value was “potent IFN-gamma production”.

For the substance “LLPAaGLDDV (LLPAAGLDDV; not fully specified (residue 5); printed as LLPAaGLDDV) [SEQ ID NO: 125]”, the “IFN-gamma production … (ELISPOT)” value in the assay with peptide-pulsed T2 cells [3] (listed as IQGAP3-A02-10-548) is “potent IFN-gamma production ability”. Also, in the assay with peptide-pulsed T2 cells [4], the “IFN-gamma production … (ELISA)” value is “potent IFN-gamma production”.

Consider FLRTWLPAV [SEQ ID NO: 101], for which, in the assay on peptide-pulsed T2 cells [3] (listed as IQGAP3-A02-9-756), the “IFN-gamma production … (ELISPOT)” value was “potent IFN-gamma production ability”. Further, the “IFN-gamma production … (ELISA)” value in the assay on peptide-pulsed T2 cells [4] is on record as “potent IFN-gamma production”.

As to “FLAEaELLKL (FLAEAELLKL; not fully specified (residue 5); printed as FLAEaELLKL) [SEQ ID NO: 113]”, the “IFN-gamma production … (ELISPOT)” value with peptide-pulsed T2 cells [3] is “no specific IFN-gamma production”.

Regarding KAQELGLVEL [SEQ ID NO: 53], in assay [1] (listed as IQGAP3-A24-10-345), the “IFN-gamma production … (ELISPOT)” value is recorded as “potent IFN-gamma production ability”. Further, in assay [2], the “IFN-gamma production … (ELISA)” value is “potent IFN-gamma production”.

Consider “SMYQlELAVL (SMYQLELAVL; not fully specified (residue 5); printed as SMYQlELAVL) [SEQ ID NO: 142]”, for which the “IFN-gamma production … (ELISPOT)” value with peptide-pulsed T2 cells [3] (listed as IQGAP3-A02-10-416) is “potent IFN-gamma production ability”. Further, the “IFN-gamma production … (ELISA)” value in the assay on peptide-pulsed T2 cells [4] is recorded as “potent IFN-gamma production”.

With “ILVHaPHPPL (ILVHAPHPPL; not fully specified (residue 5); printed as ILVHaPHPPL) [SEQ ID NO: 148]”, the “IFN-gamma production … (ELISPOT)” value in the assay on peptide-pulsed T2 cells [3] (listed as IQGAP3-A02-10-842) is listed as “potent IFN-gamma production ability”. For the same substance, the “IFN-gamma production … (ELISA)” value in the assay on peptide-pulsed T2 cells [4] was “potent IFN-gamma production”.

In the case of CFAPSVVPL [SEQ ID NO: 21], the “IFN-gamma production … (ELISPOT)” value in assay [1] (listed as IQGAP3-A24-9-74) is “potent IFN-gamma production ability”. In addition, the “IFN-gamma production … (ELISA)” value in assay [2] is “potent IFN-gamma production”.

Turning to MYQLELAVL [SEQ ID NO: 6], the “IFN-gamma production … (ELISPOT)” value in assay [1] (listed as IQGAP3-A24-9-417) is recorded as “typical negative data of CTL response; also recorded: no specific IFN-gamma production”. The “IFN-gamma production … (ELISA)” value is listed as “no specific IFN-gamma production” in assay [2] and “typical negative data of CTL response” in assay [2] (listed as IQGAP3-A24-9-417).

As to HALGAVAQLL [SEQ ID NO: 67], in assay [1] (listed as IQGAP3-A24-10-1207), the “IFN-gamma production … (ELISPOT)” value is listed as “potent IFN-gamma production ability”. Moreover, the “IFN-gamma production … (ELISA)” value in assay [2] is given as “potent IFN-gamma production”.

“QLHYqDLLQL (QLHYQDLLQL; not fully specified (residue 5); printed as QLHYqDLLQL) [SEQ ID NO: 140]”: the “IFN-gamma production … (ELISPOT)” value with peptide-pulsed T2 cells [3] (listed as IQGAP3-A02-10-1590) was “potent IFN-gamma production ability”. In addition, the “IFN-gamma production … (ELISA)” value with peptide-pulsed T2 cells [4] is reported as “potent IFN-gamma production”.
